{
  "source": "patent US4225529A",
  "about": "“Compositions containing platinum” (Johnson, Matthey & Co., Limited, priority 1977, dated 1980)",
  "key": {"S180 solid tumour": {"tested_on": "S180 solid tumour", "assay": "antitumour activity against S180 solid tumour in mice (T/C)", "format": "in vivo", "conditions": "S180, @ 10 mg/Kg, carrier water, intraperitoneal", "protocol": "(§1) Complexes according to the invention were tested for antitumour activity against L-1210 leukaemia, ADJ/PC6A tumour or S180 solid tumour in mice. In the results which follow, dosages are quoted in mg/Kg body weight and the evaluation of effectiveness (% T/C) against L1210 is calculated as the median survival time of treated mice divided by the median survival time of untreated (control) mice expressed as a percentage. Thus a % T/C of 100 indicates no activity and a % T/C of greater than or equal to 125 is considered to be indicative of significant antitumour activity.\n(§2) Against a solid tumour, the % T/C is a measure of tumour regression and is the percentage of tumour weight in treated mice to that in control mice. Against ADJ/PC6A and S180, several dose levels were given and ranged from lethal to non-tumour inhibitory, allowing the calculation of LD50 and ID90 (minimum dose to cause 90% tumour inhibition) in one experiment. The ratio LD50 /ID90 is the therapeutic index and is a measure of the selectivity of the compound as an anti-tumour agent. […]"}, "L-1210 leukaemia": {"tested_on": "L-1210 leukaemia", "assay": "antitumour activity against L1210 leukaemia in mice (% T/C)", "format": "in vivo", "conditions": "intraperitoneal, median survival treated/control", "protocol": "as §1, §2"}, "ADJ/PC6A tumour": {"tested_on": "ADJ/PC6A tumour", "assay": "antitumour activity against ADJ/PC6A tumour in mice (ID90, LD50, therapeutic index)", "format": "in vivo", "conditions": "intraperitoneal single dose in arachis oil", "protocol": "Complexes according to the invention were tested for antitumour activity against L-1210 leukaemia, ADJ/PC6A tumour or S180 solid tumour in mice. […] Thus a % T/C of 100 indicates no activity and a % T/C of greater than or equal to 125 is considered to be indicative of significant antitumour activity.\nAgainst a solid tumour, the % T/C is a measure of tumour regression and is the percentage of tumour weight in treated mice to that in control mice. Against ADJ/PC6A and S180, several dose levels were given and ranged from lethal to non-tumour inhibitory, allowing the calculation of LD50 and ID90 (minimum dose to cause 90% tumour inhibition) in one experiment. The ratio LD50 /ID90 is the therapeutic index and is a measure of the selectivity of the compound as an anti-tumour agent. All compounds were administered intraperitoneally as a single dose suspended in arachis oil."}, "stability in solution": {"assay": "stability in solution", "format": "physicochemical", "protocol": "cis-[PtI2 (n-C4 H9 NH2)2 ] (120 g, 0.20 mol) was slurried with a warm solution of silver nitrate (66 g, 0.38 mol) in water (200 ml). The mixture was stirred for 3 hours during which time the yellow suspension turned pale grey. The mixture was then treated with charcoal, stirred and filtered through a porosity 4 sinter. The residue was washed once with 30 ml of water and the washings were combined with the filtrate (total volume 300 ml).\nCis-[PtI2 (n-C3 H7 NH2)2 ] (127 g, 0.22 mol) was slurried with a warm (50° C.) solution of silver nitrate (73 g, 0.43 mol) in 130 mls of water. The mixture was stirred for 4 hours during which time the yellow suspension turned dark grey. The mixture was then treated with charcoal, stirred and filtered through a porosity 4 sinter. The residue was triturated with water (20 mls) and the filtrates combined to give a clear orange solution (total volume 150 mls).\nThe crude oxalto complex was recrystallised as follows. The product was added to a stirred, vigorously boiling aqueous solution of 0.1 M potassium oxalate (800 ml). The solution was boiled for 30 minutes to effect dissolution during which time the solution darkened owing to some platinum formation. The solution was then treated with charcoal, stirred, cooled to 80° C. and filtered through a porosity 4 sinter. White crystals formed on cooling the filtrate to 25° C. and after storage for 3 days at 5° C., the product was filtered off, washed with water and air dried.\nThe solution was concentrated to a volume of 30-40 mls, treated with charcoal and filtered through a porosity 4 sinter. A white solid formed when the solution was cool. This was filtered off on a porosity 3 sinter. More white solid was obtained when an equal volume of water was added to the ethanolic filtrate. The purified products were combined, washed with water, ethanol and dried in vacuo."}, "[1]": {"conditions": "aqueous solution, on standing (tendency to darken)"}},
  "data": [
    {"compound": "CCN.CCN.O=C1[O][Pt][O]C1=O", "note": "[Bis-(ethylamine)oxalatoplatinum(II)]", "values": [
      {"measurement": "T/C (tumour weight in treated mice to that in control mice)", "setting": "S180 solid tumour", "value": 21, "unit": "%"}
    ]},
    {"compound": "CCCN.CCCN.O=C1[O][Pt][O]C1=O", "note": "[Bis-(n-propylamino)oxalatoplatinum(II), Oxalatobis(n-propylamine)platinum(II)]", "values": [
      {"measurement": "% T/C", "setting": "L-1210 leukaemia; L1210, daily dose for 9 days @ 15 mg/Kg", "value": 143, "unit": "%"},
      {"measurement": "% T/C", "setting": "L-1210 leukaemia; L1210, daily dose for 9 days @ 30 mg/Kg", "value": 143, "unit": "%"},
      {"measurement": "% T/C", "setting": "L-1210 leukaemia; L1210, single dose @ 59 mg/Kg", "value": 129, "unit": "%"}
    ]},
    {"compound": "CCCCN.CCCCN.O=C(CCl)[O][Pt][O]C(=O)CCl", "note": "[Cis-bis (n-butylamine) bis(chloroacetato) platinum (II)]", "values": [
      {"measurement": "% T/C", "setting": "L-1210 leukaemia; L1210, daily dose for 9 days @ 32 mg/kg", "value": 136, "unit": "%"},
      {"measurement": "% T/C", "setting": "L-1210 leukaemia; L1210, single dose @ 256 mg/Kg", "value": 107, "unit": "%"}
    ]},
    {"compound": "CCCN.CCCN.O=C(CCl)[O][Pt][O]C(=O)CCl", "note": "[Cis-bis(chloroacetato) bis(n-propylamine)platinum II]", "values": [
      {"measurement": "% T/C", "setting": "L-1210 leukaemia; L1210, daily dose for 9 days @ 6 mg/Kg", "value": 225, "unit": "%"},
      {"measurement": "% T/C", "setting": "L-1210 leukaemia; L1210, single dose @ 12 mg/Kg", "value": 167, "unit": "%"},
      {"measurement": "% T/C", "setting": "L-1210 leukaemia; L1210, single dose @ 24 mg/Kg", "value": 167, "unit": "%"}
    ]},
    {"compound": "CCCN.CCCN.[Cl][Pt][Cl]", "note": "[Cis-bis(n-propylamine)dichloroplatinum(II)]", "values": [
      {"measurement": "% T/C", "setting": "L-1210 leukaemia; L1210, daily dose for 9 days @ 4 mg/kg", "value": 157, "unit": "%"},
      {"measurement": "% T/C", "setting": "L-1210 leukaemia; L1210, single dose @ 8 mg/Kg", "value": 157, "unit": "%"}
    ]},
    {"compound": "CCCCN.CCCCN.[Cl][Pt][Cl]", "note": "[Cis-bis-(n-butylamine)dichloroplatinum(II)]", "values": [
      {"measurement": "ID90 (minimum dose to cause 90% tumour inhibition)", "setting": "ADJ/PC6A tumour", "value": "< 10", "unit": "mg/kg"},
      {"measurement": "LD50", "setting": "ADJ/PC6A tumour", "value": 110, "unit": "mg/kg"},
      {"measurement": "TI (therapeutic index, ratio LD50/ID90)", "setting": "ADJ/PC6A tumour", "value": "> 11"}
    ]},
    {"compound": "CCCCN.CCCCN.O=C1[O][Pt][O]C1=O", "note": "[Example 8, Bis (n-butylamine)oxalatoplatinum(II)]", "values": [
      {"measurement": "stability", "setting": "stability in solution; boiling 0.1 M potassium oxalate", "value": "instability"}
    ]},
    {"compound": "CCCCCN.CCCCCN.O=C1[O][Pt][O]C1=O", "note": "[Example 12, Oxalatobis(n-pentylamine)platinum(II)]", "values": [
      {"measurement": "stability", "setting": "stability in solution; recrystallisation from hot ethanol", "value": "without apparent decomposition"}
    ]},
    {"compound": "CCCCCN.CCCCCN.[Cl][Pt][Cl]", "note": "[cis-dichlorobis(1-aminopentane)platinum(II)]", "values": [
      {"measurement": "ID90 (minimum dose to cause 90% tumour inhibition)", "setting": "ADJ/PC6A tumour", "value": 37, "unit": "mg/kg"},
      {"measurement": "LD50", "setting": "ADJ/PC6A tumour", "value": 92, "unit": "mg/kg"},
      {"measurement": "TI (therapeutic index, ratio LD50/ID90)", "setting": "ADJ/PC6A tumour", "value": 2.5}
    ]},
    {"compound": "n-butylamine diaquo complex [Example 1]", "values": [
      {"measurement": "stability", "setting": "stability in solution; [1]", "value": "slow decomposition to platinum"}
    ]},
    {"compound": "n-propylamine diaquo complex [Example 2]", "values": [
      {"measurement": "stability", "setting": "stability in solution; [1]", "value": "slow decomposition to platinum"}
    ]}
  ]
}
